Source: ChEMBL document CHEMBL1146586, “Chromone studies. Part 13. Synthesis and electron-impact mass spectrometric studies of 5-hydroxy-2-isopropyl-7-methoxychromone, a constituent of the medicinal plant Baeckea frutescens, and side-chain analogues” (J Nat Prod, 2003)
Converted amounts (≈) assume the structure as drawn.

Test: Toxicity against Artemia salina by Spearman-Karber method
Type: organism-based
Settings: in vivo

Structure (SMILES) | LC50 [mg/L]
COc1cc(OC)c2c(=O)cc(C)oc2c1 | 315 (≈ 1430 µM)
CCc1cc(=O)c2c(OC)cc(OC)cc2o1 | 200 (≈ 854 µM)
CCCc1cc(=O)c2c(O)cc(OC)cc2o1 | 31.5 (≈ 134 µM)
COc1cc(O)c2c(=O)cc(C)oc2c1 [EUGENIN] | 112 (≈ 544 µM)
CCCc1cc(=O)c2c(OC)cc(OC)cc2o1 | 106 (≈ 427 µM)
COc1cc(O)c2c(=O)cc(Cc3ccccc3)oc2c1 | 517 (≈ 1830 µM)
COc1cc(OC)c2c(=O)cc(Cc3ccccc3)oc2c1 | 247 (≈ 835 µM)
CCc1cc(=O)c2c(O)cc(OC)cc2o1 | 39 (≈ 177 µM)
COc1cc(OC)c2c(=O)cc(C(C)C)oc2c1 | 94.2 (≈ 379 µM)
COc1cc(O)c2c(=O)cc(C(C)C)oc2c1 | 23.8 (≈ 102 µM)
